According to article PMC8772768, “Phytochemical Analysis and Dermo-Cosmetic Evaluation of Cymbidium sp. (Orchidaceae) Cultivation By-Products” (Antioxidants, 2021):
≈ marks a conversion by molar mass, not a printed value. Entries after “also recorded” stand apart in the source; their conditions may differ.

Tests used:
[1] = test system: collagenase; assay: Collagenase inhibition assay (fluorescent MMP-2 substrate); type: biochemical; conditions: for Collagenase inhibitory activity (in words): pure compounds at 25, 100, 250 μM; for Collagenase inhibition: mean ± SD, n = 3
Method: Collagenase inhibitory activity was determined by a previously described enzymatic method with slight modifications, based on the fluorescence of the MMP-2 substrate after its degradation by collagenase. In a 96-well black microplate, 50 μL of Tris-HCL buffer (10 mM, pH = 7.3), 25 μL of the tested sample (dissolved in Tris-HCL buffer), and 25 μL of collagenase solution (30 μg/mL dissolved in Tris-HCL buffer) were preincubated for 10 min at 37 °C, avoiding light exposure. Afterwards, 25 μL of MMP-2 substrate (50 μM dissolved in Tris-HCL buffer) were added, and the plate was incubated for an additional 30 min at 37 °C in the dark. The fluorescent intensity was measured at an excitation maximum of 320 nm and an emission maximum of 405 nm using a Tecan (Infinite 200 Pro series, Männedorf, Switzerland). Crude extracts were evaluated at 75 μg/mL, 150 μg/mL, and 300 μg/mL and pure compounds at 25 μΜ, 100 μΜ, and 250 μΜ, respectively, dissolved in PBS buffer, while the percentage of DMSO was under 5% of the total volume inside the plate. […] Experiments were performed in triplicate. The collagenase inhibitory activity was calculated by the following equation:Inhibition (%) = (Abs A − Abs B)/(Abs A) × 100 where Abs A = Abs Control − Abs Control Blank and Abs B = Abs Sample − Abs Sample Blank. Abs Control is the absorbance of Tris-HCL buffer with 5% DMSO, collagenase enzyme, and substrate, and Abs Sample is the absorbance of the tested sample in the Tris-HCL buffer, collagenase enzyme, and substrate. Blanks consist of all the above reagents except the enzyme.

[2] = test system: human cell lung cancer (NCI-H187) cell line; set-up: method as in PMID 30450973; conditions: cited from earlier work
[3] = target: T1, elastase (Sus scrofa, UniProt P00772); assay: Elastase inhibition assay (N-succinyl-Ala-Ala-Ala-p-nitroanilide); type: biochemical; conditions: for Elastase inhibitory activity (in words): pure compounds at 25, 100, 250 μM
T1 construct: purchased Sigma-Aldrich
Method: Elastase inhibitory activity was measured by the presence of p-nitroaniline, after the reaction of the elastase enzyme with the substrate N-succinyl-Ala-Ala-Ala-p-nitroanilide, using a previously described protocol with minor modifications. At first, 70 μL of Trizma-base buffer (50 mM, pH = 7.5), 10 μL of the tested sample, and 5 μL of elastase solution (0.4725 U/mL dissolved in Trizma-base buffer) were mixed in the 96-well microplate and were incubated for 10 min at 37 °C, avoiding light exposure. Following this procedure, 15 μL of the substrate (2 mM dissolved in Trizma-base buffer) were added to every well of the plate, and then the plate was incubated for 30 min at 37 °C. The presence of p-nitroaniline was measured spectrophotometrically at 405 nm using a Tecan (Infinite 200 Pro series, Männedorf, Switzerland). The final tested concentrations of the extracts and pure compounds were 50 μg/mL, 100 μg/mL, 300 μg/mL, and 25 μΜ, 100 μΜ, 250 μΜ, respectively, dissolved in Trizma-base buffer, and the percentage of DMSO was under 5% of the total volume inside the plate. The negative control of the assay was 5% DMSO Trizma-base buffer, and the positive was Elastatinal (IC100 = 5 μg/mL and IC50 = 0.5 μg/mL), a strong irreversible competitive elastase inhibitor. Experiments were performed in triplicate.
The elastase inhibitory activity was calculated by the following equation:Inhibition (%) = (Abs A − Abs B)/(Abs A) × 100 where Abs A = Abs Control − Abs Control Blank and Abs B = Abs Sample − Abs Sample Blank. Abs Control is the absorbance of Trizma-base Buffer with 5% DMSO, elastase enzyme, and substrate, and Abs Sample is the absorbance of the tested sample in the Trizma-base buffer, elastase enzyme, and substrate. Blanks consist of all the above reagents except the enzyme.

[4] = target: tyrosinase (Agaricus bisporus, UniProt C7FF04); assay: Tyrosinase inhibition assay (L-DOPA, dopachrome at 475 nm); type: biochemical; conditions: pure compounds at 25, 100, 250 μM
[5] = DPPH radical scavenging assay; type: biochemical; conditions: dissolved in DMSO
Method: The final tested concentrations of the extracts were 5 μg/mL, 10 μg/mL, 20 μg/mL, 50 μg/mL, 100 μg/mL, 250 μg/mL, and 500 μg/mL dissolved in DMSO. […] Experiments were performed in triplicate. The antioxidant activity was calculated by the following equation:Inhibition (%) = (Abs A − Abs B)/(Abs A) × 100 where Abs A = Abs Control − Abs Control Blank and Abs B = Abs Sample − Abs Sample Blank. Abs Control is the absorbance of the negative control, and Abs Sample is the absorbance of the tested sample. Blanks consist of all the above reagents except the free radical reagent.

[6] = test system: mushroom tyrosinase; set-up: method as in PMID 18503477; conditions: cited from earlier work

T1 sequence (P00772 27-266): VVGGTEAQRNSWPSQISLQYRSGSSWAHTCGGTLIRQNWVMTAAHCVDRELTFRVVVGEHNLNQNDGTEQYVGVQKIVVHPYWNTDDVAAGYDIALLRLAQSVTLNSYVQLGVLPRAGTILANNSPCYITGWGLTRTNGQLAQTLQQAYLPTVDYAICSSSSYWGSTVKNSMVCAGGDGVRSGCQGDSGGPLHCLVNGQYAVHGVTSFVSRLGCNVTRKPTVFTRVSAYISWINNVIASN
Chain of tyrosinase (C7FF04 1-392): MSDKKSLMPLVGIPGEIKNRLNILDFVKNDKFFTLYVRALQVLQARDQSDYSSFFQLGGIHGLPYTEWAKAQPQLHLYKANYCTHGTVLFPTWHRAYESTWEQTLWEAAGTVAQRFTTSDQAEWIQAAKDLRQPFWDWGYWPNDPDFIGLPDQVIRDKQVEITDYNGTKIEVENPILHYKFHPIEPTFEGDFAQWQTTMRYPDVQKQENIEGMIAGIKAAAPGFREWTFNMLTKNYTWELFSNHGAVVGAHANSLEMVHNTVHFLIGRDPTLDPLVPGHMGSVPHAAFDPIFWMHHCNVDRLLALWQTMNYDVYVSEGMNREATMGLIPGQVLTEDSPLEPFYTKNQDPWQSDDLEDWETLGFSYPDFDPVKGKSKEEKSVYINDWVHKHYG

COc1cc2ccc3cccc(O)c3c2c(OC)c1O [Compound 1, bulbophyllanthrin]
Collagenase inhibitory activity (in words) [1]: dose-dependent anti-collagenase activity

COc1ccc2c(ccc3cc(OC)c(O)c(OC)c32)c1 [Compound 2, 3-hydroxy-2,4,7-trimethoxy-phenanthrene]
Collagenase inhibition ([1]; pure compound at 25 μM): 12.62 ± 1.48% | Collagenase inhibition ([1]; pure compound at 100 μM): 50.05 ± 2.67% | Collagenase inhibition ([1]; pure compound at 250 μM): 72.73 ± 1.38% | Collagenase inhibitory activity (in words) [1]: dose-dependent anti-collagenase activity

COc1cc2c(c(OC)c1O)-c1c(O)cccc1CC2 [Compound 4, marylaurencinol A]
Collagenase inhibitory activity (in words) [1]: dose-dependent anti-collagenase activity

COC1=CC(=O)c2c(ccc3cccc(O)c23)C1=O [Compound 5, 5-hydroxy-2-methoxy-1,4-phenanthrenequinone]
cytotoxic activity [2]: cytotoxic activity | Collagenase inhibitory activity (in words) [1]: dose-dependent anti-collagenase activity

COC1=CC(=O)C2=C(CCc3cccc(O)c32)C1=O [Compound 6, ephemeranthroquinone B]
Collagenase inhibitory activity (in words) [1]: dose-dependent anti-collagenase activity

COc1cc(O)cc(CCc2ccc(O)c(OC)c2)c1 [Compound 8, gigantol]
Elastase inhibitory activity (in words) [3]: non-active | Collagenase inhibitory activity (in words) [1]: non-active | Tyrosinase inhibitory activity (in words) [4]: important anti-tyrosinase activity; also recorded: moderate, dose-dependent, inhibition activity

COc1cc(CCc2cc(O)cc(O)c2)ccc1O [Compound 9, tristin]
Elastase inhibitory activity (in words) [3]: non-active | Collagenase inhibitory activity (in words) [1]: non-active | Tyrosinase inhibitory activity (in words) [4]: important anti-tyrosinase activity; also recorded: moderate, dose-dependent, inhibition activity

Cc1cc(O)cc(O)c1 [Compound 14, orcinol]
Elastase inhibitory activity (in words) [3]: inactive | Collagenase inhibitory activity (in words) [1]: inactive

CC(C)C[C@H](NC(=O)N[C@H](C(=O)N[C@@H](CCC(N)=O)C(=O)N[C@@H](C)C=O)[C@@H]1CCNC(=N)N1)C(=O)O [Elastatinal, reference compound]
IC50 ([3]; positive control): 0.975 µM | IC100 (elastase, positive control) ([3]; positive control): 5 µg/mL

O=C(O)c1cc(O)c(O)c(O)c1 [Gallic Acid]
IC50 (DPPH, positive control) [5]: 100 mg/L (≈ 588 µM)

CC(C)C[C@H](NP(=O)(O)O[C@@H]1O[C@@H](C)[C@H](O)[C@@H](O)[C@H]1O)C(=O)N[C@@H](Cc1c[nH]c2ccccc12)C(=O)O [Phosphoramidon, reference compound]
IC50 ([1]; positive control): 6.9 µM

Oc1ccc(/C=C/c2cc(O)cc(O)c2)cc1 [resveratrol]
inhibitory effects on mushroom tyrosinase [6]: potent inhibitory effects
